The source of these data is ChEMBL document CHEMBL1147802, “Diarylacetylene piperidinyl amides as novel anxiolytics” (Bioorg Med Chem Lett, 2006).

Bounds are passed on as bounds.

In data set [1] the target is T1, Substance-K receptor (Homo sapiens) (UniProt P21452).
T1 sequence (whole entry): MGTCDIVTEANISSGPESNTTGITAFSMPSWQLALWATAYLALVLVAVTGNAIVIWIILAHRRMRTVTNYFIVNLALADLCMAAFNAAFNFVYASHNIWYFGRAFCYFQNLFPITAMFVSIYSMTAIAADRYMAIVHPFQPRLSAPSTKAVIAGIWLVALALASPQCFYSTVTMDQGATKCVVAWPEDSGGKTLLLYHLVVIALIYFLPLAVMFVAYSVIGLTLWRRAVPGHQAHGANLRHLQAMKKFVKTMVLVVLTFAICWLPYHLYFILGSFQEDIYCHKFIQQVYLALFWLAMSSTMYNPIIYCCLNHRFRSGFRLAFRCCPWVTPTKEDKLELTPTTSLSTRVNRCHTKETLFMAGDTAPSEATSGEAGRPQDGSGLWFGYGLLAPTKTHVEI
Description: Inhibition of human NK2 receptor expressed in CHO cells at 10 uM. Type of data set: cell-based.

Data set [2] concerns the target T2, Substance-P receptor (Homo sapiens, UniProt P25103). Description: Inhibition of human NK1 receptor expressed in U373MG cells at 10 uM. Type of data set: cell-based. The conditions noted are these: U-373MG ATCC.
In the next data set the target is T3, Substance-K receptor (Homo sapiens, UniProt P21452).
T3 sequence (P21452 whole entry): T1 sequence (whole entry)
Description: Inhibition of human NK2 receptor expressed in CHO cells. Type of data set: cell-based.

For data set [3], the target named is T2, Substance-P receptor. Description: Inhibition of human NK1 receptor expressed in U373MG cells. Type of data set: cell-based, U-373MG ATCC.
The nature of data set [4]: Stability in human liver microsomes after 90 min. Type of data set: ADME, Microsome. The conditions noted are these: read-out: Stability.
Data set [5] can be described thus: Stability in rat liver microsomes after 90 min. The conditions noted are these: read-out: Stability. Type of data set: ADME, Microsome.
The subject of data set [6] is Mus musculus. In words: Anxiolytic activity in orally dosed mouse assessed as reversal of DOI-induced head shake. Type of data set: functional. The note with it: po, read-out: MED.
Data set [7] in a line: Oral bioavailability in rat at 3 mg/kg, po. Type of data set: ADME, organism-based. The note with it: in vivo.
Data set [8] has as its system Mus musculus. In words: Anxiolytic activity in mouse after oral administration by EPM test. Type of data set: functional. The note with it: read-out: MED.
The nature of data set [9]: Oral bioavailability in rat at 10 mg/kg, po. Type of data set: ADME, organism-based. The conditions noted are these: in vivo.
A short description of data set [10]: Stability in human liver microsomes after 60 min. Type of data set: ADME, Microsome. The conditions noted are these: read-out: Stability.
A short description of data set [11]: Half life in cynomolgus monkey. Type of data set: ADME, organism-based, Macaca fascicularis. The note with it: in vivo.
A short description of data set [12]: Half life in rat at 15 mg/kg, po. Type of data set: ADME, organism-based. Also noted: dose 15 mg/kg, route oral. The conditions noted are these: in vivo.
A short description of data set [13]: Bioavailability in cynomolgus monkey. Type of data set: ADME, organism-based, Macaca fascicularis. The note with it: in vivo.
A short description of data set [14]: Stability in rat liver microsomes after 60 min. The note with it: read-out: Stability. Type of data set: ADME, Microsome.
Data set [15] can be described thus: Oral bioavailability in rat at 15 mg/kg, po. Type of data set: ADME, organism-based. The conditions noted are these: in vivo.
Another data set is filed under the species Homo sapiens. In words: Inhibition of GABA transporter at 10 uM.
Data set [16] can be described thus: Oral bioavailability in rat at 40 mg/kg, po. Type of data set: ADME, organism-based. The conditions noted are these: in vivo.
The nature of data set [17]: Half life in rat at 40 mg/kg, po. Type of data set: ADME, organism-based. More on the design: dose 40 mg/kg, route oral. The note with it: in vivo.

T2 sequence (P25103 whole entry): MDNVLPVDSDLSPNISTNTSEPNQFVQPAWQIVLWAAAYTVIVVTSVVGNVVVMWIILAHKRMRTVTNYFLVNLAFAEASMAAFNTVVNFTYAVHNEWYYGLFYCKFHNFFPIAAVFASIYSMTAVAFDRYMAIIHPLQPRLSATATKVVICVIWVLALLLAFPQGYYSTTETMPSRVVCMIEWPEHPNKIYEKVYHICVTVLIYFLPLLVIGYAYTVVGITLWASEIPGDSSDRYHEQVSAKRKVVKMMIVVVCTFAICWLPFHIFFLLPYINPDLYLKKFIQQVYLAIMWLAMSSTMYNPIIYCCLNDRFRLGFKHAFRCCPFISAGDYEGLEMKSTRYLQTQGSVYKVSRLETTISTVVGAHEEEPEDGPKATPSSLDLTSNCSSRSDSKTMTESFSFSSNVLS

`O=C(CC1CCN(C(=O)c2cccc(C#Cc3ccccc3)c2)CC1)Nc1ccccc1`: the inhibition in data set [1] is 7%; against Substance-P receptor [2], 28%.
For the compound `O=C(CC1CCN(C(=O)c2cccc(C#Cc3ccccn3)c2)CC1)Nc1ccc(F)cc1`, the IC50 against Substance-K receptor and at Substance-P receptor [3] was 1000 nM each time. Besides, the inhibition (in [1]; at Substance-P receptor [2]) was 96% throughout.
On to `O=C(CC1CCN(C(=O)c2cccc(C#Cc3ccccn3)c2)CC1)Nc1ccccc1F`, for which the IC50 was found to be 550 nM against Substance-K receptor and 640 nM on Substance-P receptor [3]. Besides, the inhibition in data set [1] was found to be 97%; against Substance-P receptor [2], 96%.
For `O=C(CC1CCN(C(=O)c2cccc(C#Cc3ccccn3)c2)CC1)Nc1ccc(O)cc1`, the results for the remaining at 1.5 h in data set [4] and in data set [5] were 80% and 97%, respectively. In addition, the minimal effective dose with Mus musculus [6] stood at 20 mg/kg; in the data set on Mus musculus [8] it was 3 mg/kg. The bioavailability in data set [7] and in data set [9] was less than 2% in each case. Also, the inhibition at Substance-P receptor [2] is 18%.
Take `O=C(CC1CCN(C(=O)c2cccc(C#Cc3ccccn3)c2)CC1)Nc1ccc(F)cc1F`: the minimal effective dose in the data set with Mus musculus [6] was determined as 0.1 mg/kg; in the data set with Mus musculus [8], 1 mg/kg. Further, the remaining at 1 h in data set [10] was 15%; in data set [14], 0.1%. Further, the inhibition in data set [1] is 8%; on Substance-P receptor [2], 16%. The half-life in data set [11] is 186 min; in data set [12], 162 min. For the same compound, the bioavailability in [13] came to 38%; in [15] it was 7%.
As for `O=C(CC1CCN(C(=O)c2cccc(C#Cc3ccccn3)c2)CC1)Nc1ccccc1`, the remaining at 1.5 h in data set [4] stood at 35%; in [5], 63%. In addition, the minimal effective dose in the data set on Mus musculus [6] was found to be 20 mg/kg; in the data set on Mus musculus [8], 1 mg/kg. The inhibition in [1] amounted to 11%; in the data set filed under Homo sapiens, 60%; on Substance-P receptor [2], 37%. The compound also came in with a bioavailability in [16] of 65%. Besides, the half-life in data set [17] is 186 min.
